Data as given in BindingDB's records for doi:10.1021/ml200223s (2011).

Experiment: Antagonist activity at CRTH2 receptor in human whole blood assessed as inhibition of PGD2-induced eosinophil shape change incubated for 20 mins prior to PGD2-challenge measured after 10 mins by flow cytometry

## CCCCC(=O)N(Cc1ccc2c(c1)OCCO2)c1cc(F)cc(-c2nnn[nH]2)c1
  IC50: 40 nM
